Assays:
[1] = Persistence control: incubation in PBS buffer (pH 7.4) at 37° C., LC-MS/MS; format: physicochemical; conditions: for Peak Area Ratio (Analyte/incubation sample): PBS Buffer, 24 hr; for % Remaining after 24-hr Incubation at 37° C.: PBS buffer
[2] = Persistence in plasma: incubation with human plasma at 37° C., LC-MS/MS; format: in vitro ADME; conditions: for Peak Area Ratio (Analyte/incubation sample): Human Plasma
Method: Test compounds and control (procaine) were incubated at a concentration of 10 μM with human plasma. […]
After quenching by acetonitrile, the plates were capped, vortexed, and centrifuged at 3000 rpm for 10 minutes. The supernatant was injected into LC-MS/MS.

CYP3A = conditions: cited from earlier work
CYP1A2 = target: T1, CYP1A2 (Homo sapiens, UniProt P05177); conditions: cited from earlier work
T1 sequence (P05177 1-516): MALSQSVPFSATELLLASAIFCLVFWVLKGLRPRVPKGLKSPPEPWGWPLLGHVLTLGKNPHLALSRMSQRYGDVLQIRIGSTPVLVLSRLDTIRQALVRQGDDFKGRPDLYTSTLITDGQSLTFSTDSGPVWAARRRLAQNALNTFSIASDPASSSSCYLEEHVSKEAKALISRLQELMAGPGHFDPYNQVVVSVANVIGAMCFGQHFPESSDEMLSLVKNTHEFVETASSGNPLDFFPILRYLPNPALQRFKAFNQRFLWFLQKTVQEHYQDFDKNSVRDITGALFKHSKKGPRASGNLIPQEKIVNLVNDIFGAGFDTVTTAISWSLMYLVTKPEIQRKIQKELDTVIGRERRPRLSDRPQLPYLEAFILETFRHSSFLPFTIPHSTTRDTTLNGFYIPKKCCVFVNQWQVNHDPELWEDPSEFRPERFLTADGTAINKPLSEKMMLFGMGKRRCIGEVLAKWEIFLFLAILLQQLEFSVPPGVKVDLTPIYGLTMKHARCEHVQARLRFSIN

[3] = regardless of pH; cited from earlier work

Compound | Peak Area Ratio (Analyte/incubation sample) ([1]; Replicate 1) | Peak Area Ratio (Analyte/incubation sample) ([1]; Replicate 2) | % Remaining after 24-hr Incubation at 37° C. ([1]; Average) [%] | % Remaining after 24-hr Incubation at 37° C. ([1]; Replicate 1) [%] | % Remaining after 24-hr Incubation at 37° C. ([1]; Replicate 2) [%] | Peak Area Ratio (Analyte/incubation sample) ([2]; 0 hr, Replicate 1) | Peak Area Ratio (Analyte/incubation sample) ([2]; 0 hr, Replicate 2) | Peak Area Ratio (Analyte/incubation sample) ([2]; 24 hr, Replicate 1) | Peak Area Ratio (Analyte/incubation sample) ([2]; 24 hr, Replicate 2) | % Remaining after 24-hr Incubation at 37° C. ([2]; human, plasma, 24 h, 10 μM) [%] | substrate of CYP3A liver enzyme (CYP3A) | substrate of CYP1A2 liver enzyme (CYP1A2) | solubility [3]
CCN(CC)CCOC(=O)c1ccc(N)cc1 [Procaine, procaine] | 0.413 | 0.419 | 109 | 108.40 | 109.97 | 0.311 | 0.451 | 0.0 | 0.0 | 0.0 |  |  | 
Nc1cccc2c1C(=O)N(C1CCC(=O)NC1=O)C2=O (stereo not shown) [pomalidomide] |  |  |  |  |  |  |  |  |  |  | substrate | substrate | about 0.01 mg/mL

Reference: patent publication US10201617B2, “3-substituted piperidine-2, 6-diones and non-covalent complexes with albumin” (Zhuhai Beihai Biotech Co., Ltd., priority 2014, dated 2019)
